Experimental data reported in patent US11925653B2, “Combination therapy effective against microorganisms, including drug resistant microorganisms” (Fleurir ABX LLC, priority 2021, dated 2024).
Marks after values point to notes of the source that are not given here.

Tests used:
K. pneumoniae = experiment: MIC and synergy checkerboard assay, broth microdilution; assay type: cell-based
Protocol: (§1) The described novel combination was tested against both reference, and clinically resistant strains of S. aureus, E, coli, K. pneumoniae, and P. aeruginosa. Reference and clinical isolates were obtained from the American Type Culture Collection (ATCC, Manasas, VA.) and International Health Management Associates, Inc. (Schaumberg, IL). Bacteria were cultured in trypticase soy broth, concentrated 10-fold by centrifugation, and cryopreserved in the same medium containing 20% glycerol by holding at −80° C. Every two weeks a small amount of frozen culture was removed aseptically, and streaked on fresh trypticase soy agar plates to act as a working inoculum. Following overnight growth at about 37° C., the plates were wrapped in parafilm, and held at about 4° C. Bacteria (4-5 colonies) were then aseptically transferred into broth growth medium for assays as needed.
(§2) Minimum inhibitory concentration (MIC) assays were performed in a manner as described for the CLSI Agar dilution or broth microdilution assay guideline (see, Clinical Laboratory Standards Institute, 2009, Methods for Dilution Antimicrobial Susceptibility Tests for Bacteria That Grow Aerobically; Approved Standard, Eighth Edition, M07-A8, Vol. 29, No. 2). For example, known antibiotics or the compositions described herein were dissolved, serially diluted, and then added to tempered molten Mueller-Hinton Agar before pouring of plates; or were dissolved, and then serially diluted in 100 μL cation-adjusted Mueller-Hinton broth across the assay plate in the classical 2-fold geometric format. D-glucose-6-phosphate was included as a medium supplement in both agar, and broth at a concentration of 50 mg/L. Antibiotic concentrations for agar assay were at the final concentration. Antibiotic concentrations for broth microdilution in each well at this point were double what the final assay concentration would be. Bacterial inocula were prepared by swabbing several colonies from a fresh agar plate, and re-suspending the bacteria to a density that was the 0.5 McFarland turbidity standard, considered close or equivalent to 1×10^8 CFU/mL. For agar dilution, a steers replicator was utilized to deliver 1×10^4 CFU/spot. For broth microdilution, the bacterial inocula were diluted in the cation-adjusted Mueller-Hinton broth to 1×10^6 CFU/mL, and 100 μL was overlayered onto the wells containing a diluted antibiotic or a composition described. Following incubation as per the guideline, results were recorded as growth or no growth, and the lowest concentration of the antibiotic or the composition described where no growth was observed was declared the MIC.
(§3) To assay for synergy of antibacterial combinations, a recognized synergy checkerboard assay, adapted from the CLSI guideline microdilution assay, was utilized (see Eliopoulos, G. M., and Moellering, R. C, Jr., 1996. Antimicrobial Combinations, pg. 330-396. In: Lorian, V. (Ed.), Antibiotics in Laboratory Medicine, 4th Ed., Williams & Wilkins; Baltimore, MD). In the case of the agar dilution method, each antibiotic alone, or in combination was added to agar prior to plate pouring. For broth microdilution, the first compound (or antibiotic or agent) was diluted in cation-adjusted Mueller-Hinton broth across the plate along the horizontal axis with each well in a row containing 50 μL of an identical concentration of compound (or antibiotic). Along the vertical axis a dilution series of the second compound (or antibiotic) was dispensed. At this point the drug concentrations are four-fold of the final desired working concentration. […] Following incubation, wells with no growth are noted. […] FIC=(MIC-A combination/MIC-A alone)+(MIC-B combination/MIC-B alone).
(§4) In the above, FIC: Synergy=FIC<0.5; Additive=FIC>0.5-1; Indifferent=FIC>1-2; Antagonism=FIC>2-4.

Escherichia coli = experiment: MIC and synergy checkerboard assay, agar dilution; assay type: cell-based
Protocol: as §1, §2, §3, §4

K. pneumonia = experiment: MIC and synergy checkerboard assay, agar dilution; assay type: cell-based
Protocol: as §1, §2, §3, §4

P. aeruginosa = experiment: MIC and synergy checkerboard assay, agar dilution; assay type: cell-based
Protocol: as §1, §2, §3, §4

P. mirabilis = experiment: MIC and synergy checkerboard assay, broth microdilution (uUTI species); assay type: cell-based, Proteus mirabilis
Protocol: as §2
To assay for synergy of antibacterial combinations, a recognized synergy checkerboard assay, adapted from the CLSI guideline microdilution assay, was utilized (see Eliopoulos, G. M., and Moellering, R. C, Jr., 1996. Antimicrobial Combinations, pg. 330-396. In: Lorian, V. (Ed.), Antibiotics in Laboratory Medicine, 4th Ed., Williams & Wilkins; Baltimore, MD). In the case of the agar dilution method, each antibiotic alone, or in combination was added to agar prior to plate pouring. For broth microdilution, the first compound (or antibiotic or agent) was diluted in cation-adjusted Mueller-Hinton broth across the plate along the horizontal axis with each well in a row containing 50 μL of an identical concentration of compound (or antibiotic). Along the vertical axis a dilution series of the second compound (or antibiotic) was dispensed. At this point the drug concentrations are four-fold of the final desired working concentration. […] Following incubation, wells with no growth are noted. […]

S. saprophyticus = experiment: as above; assay type: cell-based, Staphylococcus saprophyticus
Protocol: as §2, with “MIC. […]” for “MIC.”

N. gonorrhoeae = experiment: MIC and synergy checkerboard assay, agar dilution on GC agar; assay type: cell-based
Protocol: as §2, §3, §4
Synergy is also identified in TABLE 9 (utilizing the agar checkerboard assay) against N. gonorrhoeae. In these analyses, the agar dilution was performed utilizing GC agar supplemented with Isovitalex, and 50 mg/L of D-glucose-6-phosphate. […] MIC comparator data was performed using the following known antibiotics: Ceftriaxone, Azithromycin, Cefixime, Ciprofloxacin, Tetracycline, Pristinamycin, Solithromycin, and Delafloxacin. Pristinamycin was purified from capsules obtained in France; Solithromycin, and Delafloxacin were synthesized internally for comparison.

susceptible bacteria = conditions: susceptible strains of Escherichia coli and Enterococcus faecalis; cited from earlier work

C[C@@H]1O[C@@H]1P(=O)(O)O [Fosfomycin, cis-1,2-epoxypropyl phosphonic acid]
128* μg/ml: MIC (Combo as F/DP/SM; second compound as DP/SM) (Escherichia coli; Escherichia coli 846455) | MIC (Combo as F/DP/SM; second compound as DP/SM) (Escherichia coli; Escherichia coli 847149) | MIC (Combo as F/DP/SM; second compound as DP/SM) (Escherichia coli; Escherichia coli 854535) | MIC (Combo as F/DP/SM; second compound as DP/SM) (Escherichia coli; Escherichia coli 854566) | MIC (Combo as F/DP/SM; second compound as DP/SM) (Escherichia coli; Escherichia coli 863078) | MIC (Combo as F/DP/SM; second compound as DP/SM) (K. pneumonia; K. pneumonia 857187) | MIC (Combo as F/DP/SM; second compound as DP/SM) (K. pneumonia; K. pneumonia 868972) | MIC (Combo as F/DP/SM; second compound as DP/SM) (K. pneumonia; K. pneumonia 926439) | MIC (Combo as F/DP/SM; second compound as DP/SM) (P. aeruginosa; P. aeruginosa 826882) | MIC (Combo as F/DP/SM; second compound as DP/SM) (P. aeruginosa; P. aeruginosa 880238) | MIC (Combo as F/DP/SM; second compound as DP/SM) (P. aeruginosa; P. aeruginosa 889058) | MIC (Combo as F/DP/SM; second compound as DP/SM) (P. aeruginosa; P. aeruginosa 906939) | MIC (Combo as F/DP/SM; second compound as DP/SM) (P. aeruginosa; P. aeruginosa 914881) | MIC (Combo as F/DP/SM; second compound as DP/SM) (P. aeruginosa; P. aeruginosa 945543) | MIC (Combo as F/DP/SM; second compound as DP/SM) (P. aeruginosa; P. aeruginosa 945545) | MIC (Combo as F/DP/SM; second compound as DP/SM) (P. aeruginosa; P. aeruginosa 945748)
4 µg/mL: MIC (Combo as F/DP/SM; second compound as DP/SM) (Escherichia coli; Escherichia coli 846446) | MIC (Combo as F/DP/SM; second compound as DP/SM) (P. mirabilis; P. mirabilis 1128681) | MIC (Combo as F/DP/SM; second compound as DP/SM) (P. mirabilis; P. mirabilis 1184042)
32 µg/mL: MIC (Combo as F/DP/SM; second compound as DP/SM) (K. pneumoniae; K. pneumoniae 875638) | MIC (Combo as F/DP/SM; second compound as DP/SM) (Escherichia coli; Escherichia coli 846450) | MIC (Combo as F/DP/SM; second compound as DP/SM) (K. pneumonia; K. pneumonia 857147) | MIC (Combo as F/DP/SM; second compound as DP/SM) (P. aeruginosa; P. aeruginosa PAO1) | MIC (Combo as F/DP/SM; second compound as DP/SM) (S. saprophyticus; S. saprophyticus 1119421) | MIC (Combo as F/DP/SM; second compound as DP/SM) (S. saprophyticus; S. saprophyticus 1124324)
≤ 64 µg/mL: MIC (susceptible bacteria)
16 µg/mL: MIC (Combo as F/DP/SM; second compound as DP/SM) (K. pneumoniae; K. pneumoniae 857147) | MIC (Combo as F/DP/SM; second compound as DP/SM) (Escherichia coli; Escherichia coli ATCC 25922) | MIC (Combo as F/DP/SM; second compound as DP/SM) (N. gonorrhoeae; N. gonorrhoeae 127781) | MIC (Combo as F/DP/SM; second compound as DP/SM) (N. gonorrhoeae; N. gonorrhoeae 127782) | MIC (Combo as F/DP/SM; second compound as DP/SM) (N. gonorrhoeae; N. gonorrhoeae 127783) | MIC (Combo as F/DP/SM; second compound as DP/SM) (N. gonorrhoeae; N. gonorrhoeae 127786) | MIC (Combo as F/DP/SM; second compound as DP/SM) (N. gonorrhoeae; N. gonorrhoeae 1117522) | MIC (Combo as F/DP/SM; second compound as DP/SM) (N. gonorrhoeae; N. gonorrhoeae 1117523)
>64* μg/ml: MIC (Combo as F/DP/SM; second compound as DP/SM) (K. pneumoniae; K. pneumoniae 848788) | MIC (Combo as F/DP/SM; second compound as DP/SM) (K. pneumoniae; K. pneumoniae 868968) | MIC (Combo as F/DP/SM; second compound as DP/SM) (K. pneumoniae; K. pneumoniae 869028) | MIC (Combo as F/DP/SM; second compound as DP/SM) (K. pneumoniae; K. pneumoniae 892483)
1 µg/mL: MIC (Combo as F/DP/SM; second compound as DP/SM) (P. mirabilis; P. mirabilis 1071120)
64 µg/mL: MIC (Combo as F/DP/SM; second compound as DP/SM) (K. pneumoniae; K. pneumoniae 857187) | MIC (Combo as F/DP/SM; second compound as DP/SM) (K. pneumoniae; K. pneumoniae 868972) | MIC (Combo as F/DP/SM; second compound as DP/SM) (K. pneumoniae; K. pneumoniae 926439) | MIC (Combo as F/DP/SM; second compound as DP/SM) (Escherichia coli; Escherichia coli 846439) | MIC (Combo as F/DP/SM; second compound as DP/SM) (Escherichia coli; Escherichia coli 857021) | MIC (Combo as F/DP/SM; second compound as DP/SM) (Escherichia coli; Escherichia coli 863686) | MIC (Combo as F/DP/SM; second compound as DP/SM) (K. pneumonia; K. pneumonia 875638) | MIC (Combo as F/DP/SM; second compound as DP/SM) (P. aeruginosa; P. aeruginosa 926474) | MIC (Combo as F/DP/SM; second compound as DP/SM) (P. mirabilis; P. mirabilis 1124256) | MIC (Combo as F/DP/SM; second compound as DP/SM) (S. saprophyticus; S. saprophyticus 1136894)
8 µg/mL: MIC (Combo as F/DP/SM; second compound as DP/SM) (N. gonorrhoeae; N. gonorrhoeae 1117524) | MIC (Combo as F/DP/SM; second compound as DP/SM) (N. gonorrhoeae; N. gonorrhoeae 1117525) | MIC (Combo as F/DP/SM; second compound as DP/SM) (N. gonorrhoeae; N. gonorrhoeae 1117527)
256* μg/ml: MIC (Combo as F/DP/SM; second compound as DP/SM) (K. pneumonia; K. pneumonia 848788) | MIC (Combo as F/DP/SM; second compound as DP/SM) (K. pneumonia; K. pneumonia 868968) | MIC (Combo as F/DP/SM; second compound as DP/SM) (K. pneumonia; K. pneumonia 869028) | MIC (Combo as F/DP/SM; second compound as DP/SM) (K. pneumonia; K. pneumonia 870964) | MIC (Combo as F/DP/SM; second compound as DP/SM) (K. pneumonia; K. pneumonia 892483) | MIC (Combo as F/DP/SM; second compound as DP/SM) (P. aeruginosa; P. aeruginosa 924190)
